Measured values: US5338726A, “Endothelin converting enzyme inhibitors” (Abbott Laboratories, priority 1992, dated 1994)
pIC50: −log10 of the molar value. Non-standard residues stand in square brackets, D forms with d. Residues, ends and D or L forms follow the SMILES beside them. *: point of attachment. Sta = CC(C)C[C@H](N)[C@@H](O)CC(=O)O; Isovaleryl = CC(C)CC(=O)*

Tests used:
[1] = tested on: solubilized endothelin converting enzyme (P3 from rat lung); assay: Endothelin converting enzyme activity of solubilized enzyme with protease inhibitors; type: biochemical; settings: at 40 mM; solubilized ECE (P3 from rat lung)
Experimental: (§1) Rat lung plasma membranes were prepared and assayed for endothelin converting enzyme activity as previously described (Biochem. Biophys. Res. Commun. 171 1291 (1990)).
The enzyme has an apparent molecular mass of 90 KD as estimated by SDS-PAGE or gel filtration and appears to be a single peptide protein. […] The enzyme may exist as isozymes with pIs at 6.2 and 6.3. […] The endothelin converting enzyme activity in active Mono Q fractions was inhibited by pepstatin A with an IC50 of 5 nM. The-endothelin converting enzyme activity of solubilized endothelin converting enzyme (P3 from rat lung) is not inhibited at 40 mM by TLCK, aprotinin, PMSF, E-64, bestatin, phosphoramidon or thiorphan. The endothelin converting enzyme activity of active Mono Q fractions was stimulated by divalent metal cations in the order of Mn^+2 ≥Zn^+2 >Ca^+2 >Mg^+2 ≥Ba^+2 =Co^+2.

[2] = target: endothelin converting enzyme (active Mono Q fractions of rat lung plasma membranes); assay: Endothelin converting enzyme activity in active Mono Q fractions; type: biochemical; settings: read-out: IC50 for inhibition of endothelin converting enzyme activity
Experimental: as §1
Rat lung plasma membranes (400 mg) were solubilized by stirring at 4° C. for 45 minutes in 50 ml of 20 mM Tris-HCl, pH 7.7 containing 2 mM dithiothreitol and 46 mM NOG (Buffer C). The unsolubilized materials were removed by centrifugation at 60,000×g for 30 minutes. Solubilized materials were injected onto a Mono Q HR 10/10 column (Pharmacia) and eluted with concentration gradients of 0-1M NaCl in 240 ml of Buffer C at 4 ml/minute. (Endothelin converting enzyme active fractions were eluted from 0.07 to 0.14 M NaCl). Absorbance at 280 nm was monitored by a LKB 2150 UVICORD SD monitor. Fractions were analyzed for endothelin converting enzyme activity and by SDS-PAGE. Protein content was determined by the Bio-Rad Protein Assay kit.
The enzyme has an apparent molecular mass of 90 KD as estimated by SDS-PAGE or gel filtration and appears to be a single peptide protein. […] The enzyme may exist as isozymes with pIs at 6.2 and 6.3. […] The endothelin converting enzyme activity in active Mono Q fractions was inhibited by pepstatin A with an IC50 of 5 nM. […]

Compound	inhibition of endothelin converting enzyme activity [1]	pIC50 [2]
aprotinin	not inhibited	–
CC(C)C[C@H](NP(=O)(O)O[C@@H]1O[C@@H](C)[C@H](O)[C@@H](O)[C@H]1O)C(=O)N[C@@H](Cc1c[nH]c2ccccc12)C(=O)O [phosphoramidon]	not inhibited	–
O=S(=O)(F)Cc1ccccc1 [PMSF]	not inhibited	–
CC(C)C[C@H](NC(=O)[C@@H](O)[C@H](N)Cc1ccccc1)C(=O)O [bestatin]	not inhibited	–
CC(C)CC(=O)N[C@H](C(=O)N[C@H](C(=O)N[C@@H](CC(C)C)[C@@H](O)CC(=O)N[C@@H](C)C(=O)N[C@@H](CC(C)C)[C@@H](O)CC(=O)O)C(C)C)C(C)C [pepstatin A] (Isovaleryl-VV[Sta]A[Sta]-OH)	–	8.30
O=C(O)CNC(=O)C(CS)Cc1ccccc1 (centres unmarked) [thiorphan]	not inhibited	–
Cc1ccc(S(=O)(=O)NC(CCCCN)C(=O)CCl)cc1 (centres unmarked) [TLCK]	not inhibited	–
CC(C)C[C@H](NC(=O)[C@H]1O[C@@H]1C(=O)O)C(=O)NCCCCN=C(N)N [Example E-64, E-64]	not inhibited	–
